Results reported in US7888386B2, “3-(phenoxyphenylmethyl)pyrrolidine compounds” (Theravance, Inc., priority 2008, dated 2011).
Like-named read-outs stand apart in the source and are kept apart here. Blank lines part the entries; values can stand above or below the compound they belong to.

Key:
hNET = target: T1, hNET (Homo sapiens, UniProt P23975); assay: hNET binding assay (Assay 1); details: read-out: NET pKi (converted)
T1 construct: expressed in transfected cells; host or cells: HEK-293 derived cell line, stably transfected; membrane preparation
T1 sequence (P23975 whole entry): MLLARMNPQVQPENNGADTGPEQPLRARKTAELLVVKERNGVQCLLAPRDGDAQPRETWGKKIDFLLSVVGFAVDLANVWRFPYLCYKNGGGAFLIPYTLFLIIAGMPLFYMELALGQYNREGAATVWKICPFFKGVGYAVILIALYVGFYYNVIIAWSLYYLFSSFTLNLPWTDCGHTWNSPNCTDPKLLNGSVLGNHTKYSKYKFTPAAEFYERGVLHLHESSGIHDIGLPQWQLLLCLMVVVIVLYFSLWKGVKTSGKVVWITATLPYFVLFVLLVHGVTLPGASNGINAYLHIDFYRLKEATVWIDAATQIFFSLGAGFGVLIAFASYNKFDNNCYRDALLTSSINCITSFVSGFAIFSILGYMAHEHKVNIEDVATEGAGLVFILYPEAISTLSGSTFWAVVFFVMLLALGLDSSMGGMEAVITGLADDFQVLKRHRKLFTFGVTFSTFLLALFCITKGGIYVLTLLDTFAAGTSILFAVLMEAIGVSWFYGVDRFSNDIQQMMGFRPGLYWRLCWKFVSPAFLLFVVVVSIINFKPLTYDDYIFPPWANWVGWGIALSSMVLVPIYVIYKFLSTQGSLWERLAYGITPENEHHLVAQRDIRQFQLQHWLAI
Method: (§1) Membrane radioligand binding assays were used to measure competitive inhibition of labeled ligand (^3H-citalopram or ^3H-nisoxetine or ^3H-WIN35428) binding to membranes prepared from cells expressing the respective human recombinant transporter (hSERT or hNET or hDAT) in order to determine the pKi values of test compounds at the transporters.
(§2) Recombinant human embryonic kidney (HEK-293) derived cell lines stably transfected with hSERT or hNET, respectively, were grown in DMEM medium supplemented with 10% dialyzed FBS (for hSERT) or FBS (for hNET), 100 μg/ml penicillin, 100 μg/ml streptomycin, 2 mM L-glutamine and 250 μg/ml of the aminoglycoside antibiotic G418, in a 5% CO2 humidified incubator at 37° C. When cultures reached 80% confluence, the cells were washed thoroughly in PBS (without Ca^2+ and Mg^2+) and lifted with 5 mM EDTA in PBS. Cells were pelleted by centrifugation, resuspended in lysis buffer (10 mM Tris-HCl, pH 7.5 containing 1 mM EDTA), homogenized, pelleted by centrifugation, then resuspended in 50 mM Tris-HCl, pH 7.5 and 10% sucrose at 4° C. Protein concentration of the membrane suspension was determined using a Bio-Rad Bradford Protein Assay kit. Membranes were snap frozen and stored at −80° C. Chinese hamster ovary membranes expressing hDAT (CHO-DAT) were purchased from PerkinElmer and stored at −80° C.
(§3) Stock solutions (10 mM in DMSO) of test compound were prepared and serial dilutions made using Dilution Buffer (50 mM Tris-HCl, 120 mM NaCl, 5 mM KCl, pH 7.4, 0.1% BSA, 400 μM ascorbic acid).
(§4) Following a 60 minute incubation at 22° C. (or a period sufficient to reach equilibrium), the membranes were harvested by rapid filtration over a 96-well UniFilter GF/B plate, pretreated with 0.3% polyethyleneimine, and washed 6 times with 300 μl wash buffer (50 mM Tris-HCl, 0.9% NaCl, pH 7.5 at 4° C.). Plates were dried overnight at room temperature, ˜45 μl of MicroScint™-20 (Perkin Elmer) added and bound radioactivity quantitated via liquid scintillation spectroscopy. Competitive inhibition curves and saturation isotherms were analyzed using GraphPad Prism Software package (GraphPad Software, Inc., San Diego, Calif.). IC50 values were generated from concentration response curves using the Sigmoidal Dose Response (variable slope) algorithm in Prism GraphPad.

hSERT = target: T2, hSERT (Homo sapiens, UniProt P31645); assay: hSERT binding assay (Assay 1)
T2 construct: expressed in transfected cells; host or cells: HEK-293 derived cell line, stably transfected; membrane preparation
T2 sequence (P31645 whole entry): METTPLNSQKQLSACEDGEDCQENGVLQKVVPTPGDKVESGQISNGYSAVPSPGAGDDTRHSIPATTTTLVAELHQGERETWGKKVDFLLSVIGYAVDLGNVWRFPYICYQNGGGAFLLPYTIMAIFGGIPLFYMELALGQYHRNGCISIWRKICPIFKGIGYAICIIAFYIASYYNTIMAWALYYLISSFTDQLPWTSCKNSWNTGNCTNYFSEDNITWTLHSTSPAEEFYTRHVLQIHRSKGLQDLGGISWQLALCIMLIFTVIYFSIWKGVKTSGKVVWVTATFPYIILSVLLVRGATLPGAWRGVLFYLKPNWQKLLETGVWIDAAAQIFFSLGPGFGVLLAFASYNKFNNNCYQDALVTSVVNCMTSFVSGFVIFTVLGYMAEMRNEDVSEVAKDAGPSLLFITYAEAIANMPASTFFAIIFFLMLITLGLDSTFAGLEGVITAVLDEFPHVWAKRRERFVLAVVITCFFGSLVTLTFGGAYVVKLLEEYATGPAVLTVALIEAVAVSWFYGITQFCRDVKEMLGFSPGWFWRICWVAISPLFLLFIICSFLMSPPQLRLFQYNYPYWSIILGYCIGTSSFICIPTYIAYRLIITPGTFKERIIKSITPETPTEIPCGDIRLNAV
Method: as §1, §2, §3, §4

[1] = membranes of HEK-293 cells expressing hNET, 1.0 nM 3H-nisoxetine
[2] = ratio of binding Ki at hSERT to Ki at hNET, rounded off to the nearest tenth
[3] = ratio of SERT Ki to NET Ki (binding)
[4] = hNET binding, the tables list only compounds with NET pKi≧8
[5] = ratio of binding Ki at SERT to Ki at NET, the tables list only compounds with a ratio in the range 0.1-100
[6] = ratio of SERT Ki to NET Ki from binding assays

Compound: COc1ccccc1OC(c1cccc(C(N)=O)c1)C1CCNC1 (centres unmarked) [Compound 20-30]
Ki (hNET; [1]): 2.51 nM
SERT Ki/NET Ki (hSERT; [2]): 25

Compound: Fc1c(Cl)ccc(O[C@@H](c2ccccc2)[C@H]2CCNC2)c1F [36-3]
Ki (hNET; hNET binding): 6.31 nM
SERT Ki/NET Ki (hSERT; [3]): 0.1

Compound: N#Cc1cccc([C@H](Oc2c(F)ccc(F)c2Cl)[C@@H]2CCNC2)c1 [41-34]
Ki (hNET; hNET binding): 7.94 nM
SERT Ki/NET Ki (hSERT; [3]): 0.8

Compound: Fc1cc(Cl)cc(F)c1O[C@@H](c1ccccc1)[C@H]1CCNC1 [44-9]
Ki (hNET; [4]): 2.51 nM
SERT Ki/NET Ki (hSERT; [5]): 0.1

Compound: Cc1ccc(F)c(OC(c2ccccc2)C2CCNC2)c1 (centres unmarked) [29-8]
Ki (hNET; hNET binding assay): 1.58 nM
SERT Ki/NET Ki (hSERT; [6]): 3.2

Compound: COc1ccc(F)c(F)c1O[C@H](c1ccccc1)[C@@H]1CCNC1 [40-8]
Ki (hNET; hNET binding): 1 nM
SERT Ki/NET Ki (hSERT; [3]): 1

Compound: N#Cc1cccc(C(Oc2cc(Cl)ccc2Cl)C2CCNC2)c1 (centres unmarked) [32-15]
SERT Ki/NET Ki (hSERT; [6]): 13

Compound: CCc1cc(F)cc(F)c1O[C@@H](c1ccccc1)[C@H]1CCNC1 [44-4]
Ki (hNET; [4]): 0.631 nM
SERT Ki/NET Ki (hSERT; [5]): 0.3

Compound: NC(=O)c1cccc(C(Oc2c(F)ccc(F)c2Cl)C2CCNC2)c1 (centres unmarked) [41-38]
SERT Ki/NET Ki (hSERT; [3]): 0.1

Compound: Fc1cc(F)cc(C(Oc2c(Cl)ccc(Cl)c2Cl)C2CCNC2)c1 (centres unmarked) [41-13]
SERT Ki/NET Ki (hSERT; [3]): 2

Compound: Fc1cc(F)cc(C(Oc2cc(Cl)ccc2Cl)C2CCNC2)c1 (centres unmarked) [32-24]
SERT Ki/NET Ki (hSERT; [6]): 7.9

Compound: Clc1ccc(Cl)c(OC(c2ccccc2Cl)C2CCNC2)c1 (centres unmarked) [32-7]
SERT Ki/NET Ki (hSERT; [6]): 0.6

Compound: Cc1ccc(Cl)c(OC(c2ccccc2)C2CCNC2)c1Cl (centres unmarked) [40-32]
SERT Ki/NET Ki (hSERT; [3]): 1

Compound: Fc1ccc(Cl)c(O[C@H](c2ccccc2)[C@@H]2CCNC2)c1 [29-13]
SERT Ki/NET Ki (hSERT; [6]): 0.2

Compound: Cc1cc(F)cc(C(Oc2c(Cl)ccc(C)c2Cl)C2CCNC2)c1 (centres unmarked) [41-22]
SERT Ki/NET Ki (hSERT; [3]): 0.3

Compound: Fc1cc(F)cc(C(Oc2cc(Cl)cc(Cl)c2)C2CCNC2)c1 (centres unmarked) [35-16]
SERT Ki/NET Ki (hSERT; [3]): 0.5

Compound: NC(=O)c1cccc([C@H](Oc2cc(Cl)ccc2Cl)[C@H]2CCNC2)c1 [32-17]
SERT Ki/NET Ki (hSERT; [6]): 2

Compound: Fc1cc(Cl)cc(OC(c2ccccc2)C2CCNC2)c1 (centres unmarked) [34-4]
SERT Ki/NET Ki (hSERT; [6]): 0.3

Compound: COc1ccc(F)c(OC(c2ccccc2Cl)C2CCNC2)c1 (centres unmarked) [32-3]
SERT Ki/NET Ki (hSERT; [6]): 4

Compound: Cc1ccc(OC(c2ccccc2)C2CCNC2)cc1F (centres unmarked) [33-3]
SERT Ki/NET Ki (hSERT; [6]): 0.3

Compound: Fc1cc(F)cc([C@H](Oc2cc(Cl)ccc2Cl)[C@H]2CCNC2)c1 [32-25]
SERT Ki/NET Ki (hSERT; [6]): 25

Compound: Cc1ccc(Cl)c(OC(c2ccccc2)C2CCNC2)c1Cl (centres unmarked) [40-34]
SERT Ki/NET Ki (hSERT; [3]): 0.1

Compound: COc1ccc(C)cc1OC(c1ccccc1)C1CCNC1 (centres unmarked) [29-27]
SERT Ki/NET Ki (hSERT; [6]): 2

Compound: Cc1ccc(OC(c2ccccc2)C2CCNC2)c([N+](=O)[O-])c1 (centres unmarked) [27-33]
SERT Ki/NET Ki (hSERT; [6]): 1.6

Compound: Cc1ccc(Cl)cc1OC(c1ccccc1)C1CCNC1 (centres unmarked) [29-18]
SERT Ki/NET Ki (hSERT; [6]): 0.1

Compound: Fc1ccc(C(Oc2cc(Cl)ccc2Cl)C2CCNC2)cc1 (centres unmarked) [32-11]
SERT Ki/NET Ki (hSERT; [6]): 4

Ki (hNET; [1]): 6.31 nM
Compound: c1ccc(OC(c2ccccc2)C2CCNC2)cc1 (centres unmarked) [Ex. 17-1, 3-(Phenoxyphenylmethyl)pyrrolidine]

Compound: Fc1cc(F)cc(C(Oc2cc(Cl)ccc2F)C2CCNC2)c1 (centres unmarked) [32-2]
SERT Ki/NET Ki (hSERT; [6]): 2.5

Compound: Cc1cccc(Cl)c1OC(c1ccccc1)C1CCNC1 (centres unmarked) [31-13]
SERT Ki/NET Ki (hSERT; [6]): 0.6

Compound: Cc1ccc(Cl)c(OC(c2ccccc2)C2CCNC2)c1Cl (centres unmarked) [40-33]
SERT Ki/NET Ki (hSERT; [3]): 3.2

Compound: FC(F)(F)c1cc(Cl)ccc1OC(c1ccccc1)C1CCNC1 (centres unmarked) [27-21]
SERT Ki/NET Ki (hSERT; [6]): 0.6

Compound: Fc1c(Cl)cccc1OC(c1ccccc1)C1CCNC1 (centres unmarked) [Compound 25-4]
SERT Ki/NET Ki (hSERT; [2]): 5

Compound: Fc1c(F)c(F)c(O[C@H](c2ccccc2)[C@@H]2CCNC2)c(F)c1F [49-2]
SERT Ki/NET Ki (hSERT; [5]): 0.2

Compound: N#Cc1cccc([C@H](Oc2c(F)cc(F)cc2F)[C@H]2CCNC2)c1 [45-3]
SERT Ki/NET Ki (hSERT; [5]): 3.2

Compound: Cc1ccc(Cl)c(OC(c2ccccc2)C2CCNC2)c1Cl (centres unmarked) [40-31]
SERT Ki/NET Ki (hSERT; [3]): 0.6

Compound: COc1cccc(C(Oc2cc(Cl)ccc2Cl)C2CCNC2)c1 (centres unmarked) [32-13]
SERT Ki/NET Ki (hSERT; [6]): 0.3

Compound: c1ccc(COc2ccccc2OC(c2ccccc2)C2CCNC2)cc1 (centres unmarked) [Compound 19-23]
SERT Ki/NET Ki (hSERT; [2]): 3.2
